Reference: patent publication US20240226117A1, “TREATMENT OF CONGENITAL ADRENAL HYPOPLASIA” (ReveraGen BioPharma, Inc., priority 2021, published 2024)

Key:
Type in all cases: in vivo, human
ambulant boys with DMD [1] = assay: VISION-DMD Phase 2b (VBP15-004) motor efficacy, 24-week double-blind period
ambulant boys with DMD [2] = assay: VBP15-004 growth (height Z score)
DMD participants = assay: VBP15-003/VBP15-LTE motor outcomes over 18 months (TTSTAND, TTRW, TTCLIMB, 6MWT, NSAA); settings: ANCOVA; for TTCLIMB velocity, LS mean difference (SE) / TTSTAND velocity, LS mean difference (SE): vamorolone 2.0 or 6.0 mg/kg/day 18 months versus corticosteroid-naïve DNHS
Protocol: Three consecutive clinical trials of vamorolone treatment of DMD were conducted by CINRG (VBP15-002 [NCT02760264]: VBP15-003 [NCT02760277]: VBP15-LTE [NCT03038399]). A total of 48 participants (ages 4 to <7 years) were initially enrolled into VBP15-002, with trial participants completing month 12 of the 24-month VBP15-LTE study.
The consecutive vamorolone trials (VBP15-002, VBP15-003, VBP15-LTE) were open-label with no placebo comparator. Corticosteroid-naïve and corticosteroid-treated DMD participant comparators were group-matched participants from the CINRG DNHS (NCT00468832). The CINRG DNHS was an observational, prospective case-control study of 551 participants (440 with DMD, 111 healthy peers). For group matching between vamorolone-treated participants and CINRG DNHS participants, prespecified criteria were defined for matching within the interim statistical analysis plan (iSAP). Age-matched CINRG DNHS participants included those continuously corticosteroid-naïve over an 18-month period (n=19) or continuously corticosteroid-treated over an 18-month period (n=68). For the 68 corticosteroid-treated participants, as this was an observational cohort, corticosteroid doses and regimens varied based on clinician discretion. Although all 68 participants were treated for 18 months continuously, the age at initiation of corticosteroids varied. Thus, the total duration of corticosteroid treatment was longer than 18 months for most participants.
Assessments of efficacy were motor outcomes (primary outcome: time to stand from supine [TTSTAND]: secondary outcomes: time to run/walk 10 meters [TTRW], time to climb four stairs [TTCLIMB], distance covered in 6-minute walk test [6MWT], and the North Star Ambulatory Assessment [NSAA]). 6MWT and NSAA were not assessed in most CINRG DNHS participants and were not compared to vamorolone-treated participants. According to standard operating procedures, clinical evaluators were trained to harmonize the CINRG vamorolone, CINRG DNHS, and CINRG prednisone studies. Reliability of these outcomes (percent coefficient of variation) has been reported for the VBP15-002/VBP15-003 studies. Assessments were done at baseline (VBP15-002 entry), 24 weeks (VBP15-003 last visit), and 18 months (VBP15-LTE midpoint assessment at 12 months).
Only participants completing VBP15-002 and VBP15-003 were eligible to enroll in VBP15-LTE. Participants received vamorolone at 1 of 4 dose levels (0.25, 0.75, 2.0, or 6.0 mg/kg/day) and at the same dose level in both the 4-week VBP15-002 trial and the 24-week VBP15-003 trial. If participants, their families, and their physicians wished to continue vamorolone treatment upon exiting the VBP15-003 trial, they were offered participation in the 24-month long-term extension (VBP15-LTE). The last visit of the VBP15-003 trial was commensurate with the first visit of the VBP15-LTE trial. In all studies, study medication was provided as 4% flavored liquid suspension and was dosed according to body weight and given once daily in the morning with food.
Vamorolone-treated participants were initially enrolled into VBP15-002 and VBP15-003 in 4 dose groups (0.25, 0.75, 2.0, and 6.0 mg/kg/day: groups A-D). Upon entering VBP15-LTE, vamorolone group A participants had 2 or 3 sequential dose escalations and were treated with 2.0 or 6.0 mg/kg/day for the last 3-9 months of the 18 months: group B participants had 1 or 2 dose escalations and were treated with 2.0 or 6.0 mg/kg/day for the last 9-11 months. Groups C and D were treated for 18 months at 2.0 or 6.0 mg/kg/day (S1 Fig).
The current study is the first to evaluate the longer-term tolerability, efficacy, and safety of vamorolone in DMD. […] Given the variable timing of dose escalations, it was prespecified that initial analyses of drug-related efficacy and safety would be limited to those participants who had 18 months of treatment with 2.0 mg/kg/day vamorolone or more (dose group C+dose group D: n=23). […]

[3] = vamorolone 18 months versus corticosteroid-naïve participants

For `C[C@@H]1C[C@H]2[C@@H]3CCC4=CC(=O)C=C[C@]4(C)C3=CC[C@]2(C)[C@@]1(O)C(=O)CO` [Vamorolone, 17α,21-dihydroxy-16α-methylpregna-1,4,9(11)-triene-3,20-dione], the “TTSTAND after 24 weeks” value (ambulant boys with DMD [1]; vamorolone 6 mg/kg/day group, from 6.0 seconds at baseline) was 4.6 s, the “TTSTAND velocity, 6MWT, TTRW endpoints compared with prednisone” value (ambulant boys with DMD [1]; vamorolone 6 mg/kg/day versus prednisone 0.75 mg/kg/day, 24 weeks) was “no statistically significant differences” and the “TTSTAND velocity, treatment difference versus placebo in change from baseline” value (ambulant boys with DMD [1]; vamorolone 6 mg/kg/day, 24 weeks, p=0.002) was 0.06 rises/second. For the same molecule, the “change in height Z scores from baseline to Week 24” value (ambulant boys with DMD [2]; vamorolone 2.0 mg/kg/day) was “overall stable height change Z scores”, the “change in height Z scores from baseline to Week 24” value (ambulant boys with DMD [2]; vamorolone 6.0 mg/kg/day, p=0.02 versus prednisone) was “increased growth rate” and the “TTCLIMB velocity, LS mean difference (SE)” value (DMD participants) was 0.059 (0.026) event/second. The “TTSTAND velocity, LS mean difference (SE)” value (DMD participants) was 0.042 (0.024) event/second, the “TTCLIMB velocity, LS mean difference (SE)” value (DMD participants; listed as vamorolone) was 0.059 event/second and the “TTSTAND velocity, LS mean difference (SE)” value (DMD participants; listed as vamorolone) was 0.042 event/second. The “TTCLIMB in seconds units, LS mean difference” value (DMD participants; [3]) was -0.34 s and the “TTRW in seconds units, LS mean difference” value (DMD participants; [3]) was -0.84 s.
